Laboratory results: the NIST ThermoML archive (doi:10.1016/j.jct.2018.08.013)
Several values for one entry are separate records, joined by “and”; a condition that tells them apart may be missing. Identical values can stand only once.

Legend:
[1] = xn = mol fraction of the nth substance listed; details: 298 K; 100 kPa; Crystal of intercomponent compound 1; X-ray diffraction; x2 = 0.493
[2] = specific heat capacity at constant pressure; xn = mol fraction of the nth substance listed; details: 100 kPa, Crystal of intercomponent compound 1, x2 = 0.493

[S] [sulfur] + [Ga]
Details	mass density [kg/m3]
[1]	3910

[2]
Details	specific heat capacity
18.16 K, relaxation calorimetry	12.05 J/K/kg
18.18 K, relaxation calorimetry	12.12 J/K/kg
20.17 K, relaxation calorimetry	16.52 J/K/kg
20.2 K, relaxation calorimetry	16.6 J/K/kg
22.19 K, relaxation calorimetry	21.61 J/K/kg
22.22 K, relaxation calorimetry	21.71 J/K/kg and 21.72 J/K/kg
24.21 K, relaxation calorimetry	27.33 J/K/kg
24.24 K, relaxation calorimetry	27.43 J/K/kg and 27.44 J/K/kg
26.24 K, relaxation calorimetry	33.49 J/K/kg
26.26 K, relaxation calorimetry	33.58 J/K/kg
28.24 K, relaxation calorimetry	39.83 J/K/kg
28.26 K, relaxation calorimetry	39.94 J/K/kg
28.27 K, relaxation calorimetry	39.95 J/K/kg
30.29 K, relaxation calorimetry	46.52 J/K/kg and 46.51 J/K/kg
35.28 K, relaxation calorimetry	63.34 J/K/kg
35.34 K, relaxation calorimetry	63.61 J/K/kg and 63.51 J/K/kg
40.32 K, relaxation calorimetry	80.08 J/K/kg
40.39 K, relaxation calorimetry	80.21 J/K/kg
40.4 K, relaxation calorimetry	80.32 J/K/kg
45.38 K, relaxation calorimetry	96.1 J/K/kg
45.44 K, relaxation calorimetry	96.06 J/K/kg
45.46 K, relaxation calorimetry	96.26 J/K/kg
50.44 K, relaxation calorimetry	111.7 J/K/kg
50.47 K, relaxation calorimetry	111.6 J/K/kg
50.51 K, relaxation calorimetry	111.7 J/K/kg
55.47 K, relaxation calorimetry	126.24 J/K/kg
55.51 K, relaxation calorimetry	125.95 J/K/kg
55.55 K, relaxation calorimetry	126.24 J/K/kg
60.51 K, relaxation calorimetry	140.09 J/K/kg
60.55 K, relaxation calorimetry	139.99 J/K/kg
60.58 K, relaxation calorimetry	139.99 J/K/kg
65.57 K, relaxation calorimetry	154.14 J/K/kg
65.59 K, relaxation calorimetry	154.04 J/K/kg
65.63 K, relaxation calorimetry	154.04 J/K/kg
70.62 K, relaxation calorimetry	167.6 J/K/kg
70.63 K, relaxation calorimetry	167.6 J/K/kg
70.66 K, relaxation calorimetry	167.5 J/K/kg
75.65 K, relaxation calorimetry	180.57 J/K/kg
75.68 K, relaxation calorimetry	180.86 J/K/kg
75.7 K, relaxation calorimetry	180.47 J/K/kg
80.7 K, relaxation calorimetry	194.32 J/K/kg
80.73 K, relaxation calorimetry	194.42 J/K/kg
80.74 K, relaxation calorimetry	194.32 J/K/kg
85.74 K, relaxation calorimetry	207.39 J/K/kg
85.77 K, relaxation calorimetry	207.39 J/K/kg
85.78 K, relaxation calorimetry	207.39 J/K/kg
90.77 K, relaxation calorimetry	220.55 J/K/kg
90.8 K, relaxation calorimetry	220.26 J/K/kg and 220.45 J/K/kg
95.75 K, relaxation calorimetry	232.24 J/K/kg
95.79 K, relaxation calorimetry	231.95 J/K/kg
95.82 K, relaxation calorimetry	231.85 J/K/kg
100.8 K, relaxation calorimetry	243.64 J/K/kg
100.86 K, relaxation calorimetry	242.85 J/K/kg
100.91 K, relaxation calorimetry	243.05 J/K/kg
106.88 K, relaxation calorimetry	257.1 J/K/kg and 257.39 J/K/kg
107.03 K, relaxation calorimetry	256.21 J/K/kg
113.66 K, relaxation calorimetry	272.42 J/K/kg
113.82 K, relaxation calorimetry	273.11 J/K/kg
113.94 K, relaxation calorimetry	271.54 J/K/kg
120.64 K, relaxation calorimetry	286.47 J/K/kg
120.83 K, relaxation calorimetry	286.96 J/K/kg
120.89 K, relaxation calorimetry	285.1 J/K/kg
127.82 K, relaxation calorimetry	298.56 J/K/kg
127.84 K, relaxation calorimetry	298.36 J/K/kg
134.78 K, relaxation calorimetry	310.93 J/K/kg
134.8 K, relaxation calorimetry	310.34 J/K/kg
134.81 K, relaxation calorimetry	310.25 J/K/kg
141.61 K, relaxation calorimetry	324 J/K/kg
141.75 K, relaxation calorimetry	322.43 J/K/kg
141.83 K, relaxation calorimetry	321.94 J/K/kg
148.61 K, relaxation calorimetry	333.53 J/K/kg
148.72 K, relaxation calorimetry	332.15 J/K/kg
148.84 K, relaxation calorimetry	330.48 J/K/kg
155.54 K, relaxation calorimetry	342.37 J/K/kg
155.64 K, relaxation calorimetry	340.7 J/K/kg
155.72 K, relaxation calorimetry	339.33 J/K/kg
162.61 K, relaxation calorimetry	350.82 J/K/kg
162.66 K, relaxation calorimetry	349.74 J/K/kg
162.73 K, relaxation calorimetry	349.64 J/K/kg
169.57 K, relaxation calorimetry	360.25 J/K/kg
169.65 K, relaxation calorimetry	358.19 J/K/kg
169.72 K, relaxation calorimetry	359.07 J/K/kg
176.58 K, relaxation calorimetry	367.72 J/K/kg
176.67 K, relaxation calorimetry	367.72 J/K/kg
176.69 K, relaxation calorimetry	362.51 J/K/kg
183.46 K, relaxation calorimetry	377.05 J/K/kg
183.56 K, relaxation calorimetry	375.87 J/K/kg
183.6 K, relaxation calorimetry	370.67 J/K/kg
190.49 K, relaxation calorimetry	383.83 J/K/kg
190.59 K, relaxation calorimetry	383.53 J/K/kg
190.65 K, relaxation calorimetry	378.13 J/K/kg
197.48 K, relaxation calorimetry	388.94 J/K/kg
197.53 K, relaxation calorimetry	389.63 J/K/kg
197.63 K, relaxation calorimetry	385.2 J/K/kg
204.39 K, relaxation calorimetry	394.64 J/K/kg
204.41 K, relaxation calorimetry	396.21 J/K/kg
204.53 K, relaxation calorimetry	392.18 J/K/kg
211.42 K, relaxation calorimetry	400.83 J/K/kg
211.46 K, relaxation calorimetry	401.71 J/K/kg
211.56 K, relaxation calorimetry	397.19 J/K/kg
218.3 K, relaxation calorimetry	405.64 J/K/kg
218.34 K, relaxation calorimetry	407.41 J/K/kg
218.45 K, relaxation calorimetry	402.99 J/K/kg
225.38 K, relaxation calorimetry	410.35 J/K/kg and 412.32 J/K/kg
225.51 K, relaxation calorimetry	408.68 J/K/kg
232.24 K, relaxation calorimetry	414.68 J/K/kg and 416.64 J/K/kg
232.38 K, relaxation calorimetry	412.81 J/K/kg
239.31 K, relaxation calorimetry	418.61 J/K/kg and 420.57 J/K/kg
239.44 K, relaxation calorimetry	416.94 J/K/kg
246.17 K, relaxation calorimetry	422.44 J/K/kg
246.31 K, relaxation calorimetry	420.96 J/K/kg
253.25 K, relaxation calorimetry	426.56 J/K/kg
253.26 K, relaxation calorimetry	424.99 J/K/kg
253.37 K, relaxation calorimetry	424.7 J/K/kg
260.11 K, relaxation calorimetry	428.53 J/K/kg and 430.1 J/K/kg
260.22 K, relaxation calorimetry	427.94 J/K/kg
260.51 K, Extra sensitive DSC	429.81 J/K/kg
263.12 K, Extra sensitive DSC	432.26 J/K/kg
265.73 K, Extra sensitive DSC	432.66 J/K/kg
267.18 K, relaxation calorimetry	432.16 J/K/kg and 433.25 J/K/kg
267.28 K, relaxation calorimetry	431.28 J/K/kg
268.33 K, Extra sensitive DSC	434.33 J/K/kg
270.07 K, Extra sensitive DSC	435.41 J/K/kg
273.54 K, Extra sensitive DSC	436.78 J/K/kg
274.03 K, relaxation calorimetry	435.6 J/K/kg and 437.27 J/K/kg
274.12 K, relaxation calorimetry	434.33 J/K/kg
276.15 K, Extra sensitive DSC	437.37 J/K/kg
279.62 K, Extra sensitive DSC	439.04 J/K/kg
281.12 K, relaxation calorimetry	440.32 J/K/kg
281.13 K, relaxation calorimetry	440.12 J/K/kg
281.19 K, relaxation calorimetry	438.35 J/K/kg
283.09 K, Extra sensitive DSC	440.42 J/K/kg
285.7 K, Extra sensitive DSC	441.4 J/K/kg
287.94 K, relaxation calorimetry	442.87 J/K/kg
287.95 K, relaxation calorimetry	442.09 J/K/kg
288.02 K, relaxation calorimetry	441.2 J/K/kg
289.17 K, Extra sensitive DSC	442.77 J/K/kg
292.64 K, Extra sensitive DSC	444.15 J/K/kg
295 K, relaxation calorimetry	443.07 J/K/kg and 444.35 J/K/kg
295.08 K, relaxation calorimetry	443.46 J/K/kg
295.25 K, Extra sensitive DSC	444.64 J/K/kg
297.85 K, Extra sensitive DSC	445.72 J/K/kg
300.45 K, Extra sensitive DSC	446.61 J/K/kg
301.99 K, relaxation calorimetry	450.73 J/K/kg
302 K, relaxation calorimetry	450.83 J/K/kg
302.09 K, relaxation calorimetry	445.23 J/K/kg
303.06 K, Extra sensitive DSC	447.88 J/K/kg
305.66 K, Extra sensitive DSC	448.77 J/K/kg
308.26 K, Extra sensitive DSC	449.75 J/K/kg
310.87 K, Extra sensitive DSC	450.44 J/K/kg
313.47 K, Extra sensitive DSC	451.52 J/K/kg
315.21 K, Extra sensitive DSC	452.11 J/K/kg
317.81 K, Extra sensitive DSC	452.3 J/K/kg
320.41 K, Extra sensitive DSC	453.09 J/K/kg
323.02 K, Extra sensitive DSC	453.29 J/K/kg
325.62 K, Extra sensitive DSC	454.17 J/K/kg
328.23 K, Extra sensitive DSC	455.45 J/K/kg
329.96 K, Extra sensitive DSC	455.35 J/K/kg
332.56 K, Extra sensitive DSC	455.84 J/K/kg
335.17 K, Extra sensitive DSC	456.53 J/K/kg
337.77 K, Extra sensitive DSC	457.22 J/K/kg
340.38 K, Extra sensitive DSC	458.2 J/K/kg
342.98 K, Extra sensitive DSC	459.18 J/K/kg
345.58 K, Extra sensitive DSC	459.28 J/K/kg
348.19 K, Extra sensitive DSC	460.46 J/K/kg
350.79 K, Extra sensitive DSC	461.15 J/K/kg
353.39 K, Extra sensitive DSC	460.75 J/K/kg
356 K, Extra sensitive DSC	461.93 J/K/kg
358.6 K, Extra sensitive DSC	462.72 J/K/kg
